Consider 3 compounds from ChEMBL document CHEMBL1151682, “Insecticidal neolignans from Piper decurrens” (J Nat Prod, 1996).

Activity calls are given as the source filed them. The rule behind the calls is not given here.

The assay deals with Aedes atropalpus. Kind of assay: Toxicity in sOchlerotatus atropalpus second-instar larvae at 10 ppm after 24 hrs. It is filed as functional, organism-based.
Regarding `c1csc(-c2ccc(-c3cccs3)s2)c1`, the outcome was Active.
On to `C/C=C/c1ccc2oc(-c3ccc(O)cc3)c(C)c2c1`, for which the outcome was Active.
Under `C[C@H]1c2cc(C=O)ccc2O[C@@H]1c1ccc(O)cc1` stands “inactive”.
